Laboratory results from patent US8017321B2, “Gefitinib sensitivity-related gene expression and products and methods related thereto” (The Regents of the University of Colorado, A Body Corporate, priority 2005, dated 2011).

How the values were obtained:
[1] = test system: A549 NSCLC xenografts; assay: Athymic nude mice bearing human NSCLC xenografts (FIG. 5); format: in vivo
Text: FIG. 5 is a line graph showing the effects of gefitinib on A549 NSCLC xenografts.

[2] = test system: NSCLC; settings: chemo-refractory advanced stage NSCLC, phase II clinical trials; cited from earlier work

COc1cc2ncnc(Nc3ccc(F)c(Cl)c3)c2cc1OCCCN1CCOCC1 [ZD 1839, gefitinib]
tumor growth of NSCLC xenografts after treatment ([1]; listed as ZD1839): Growth delay was evident
tumor growth of NSCLC xenografts after treatment ([1]; listed as gefitinib): inhibitory effect
patients responding to treatment [2]: 11-20%
